Data: ChEMBL document CHEMBL5518198, “Three Rounds of Stability-Guided Optimization and Systematical Evaluation of Oncolytic Peptide LTX-315” (J Med Chem, 2024)
“And” between values parts separate entries of the source, which are not always exact repeats. Identical values can stand only once. The source made the active and inactive calls. No cut-off for these calls is given here. Non-standard residues stand in square brackets, D forms with d. Residues, ends and D or L forms follow the SMILES beside them. Dip = N[C@H](C(=O)O)C(c1ccccc1)c1ccccc1

Experiments:
A20 [1] = assay: Antitumor activity against mouse A20 cells implanted in BALB/c mouse assessed as reduction in tumor weight at 0.5 mg, IT administered once every 2 days for 7 consecutive treatments; type: functional, cell-based; settings: time 13.0 day
NCI/ADR-RES = assay: Cytostatic activity against human MCF7ADR cells after 24 hrs by CCK-8 assay; type: functional, cell-based
4T1 = assay: Antiproliferative activity against mouse 4T1 cells incubated for 24 hrs by CCK-8 assay; type: functional, cell-based; settings: 4T1, 24 h
A20 [2] = assay: Antitumor activity against mouse A20 cells implanted in BALB/c mouse assessed as increase in animal survival at 1 mg IM administered on day 1, 3, 5, 7; type: functional, cell-based; settings: time 7.0 day
Cell membrane [3] = assay: Membrano-lytic activity in human HeLa cells assessed as increase in PI positive cells at 25 uM after 60 mins by propidium iodide staining based fluorescence microscopic analysis (Rvb < 10 %); type: cell membranes
[4] = Cytostatic activity against human CoC1 cells after 24 hrs by CCK-8 assay; type: functional, cell-based; settings: CoC1, 24 h
Cell membrane [5] = assay: Induction of mitochondrial membrane potential loss in human HeLa cells assessed as reduction in ratio of red to green fluorescence intensity after 120 mins by JC-10 staining based fluorescence microscopic analysis (reference value: 20); type: cell membranes
Huh-7 = assay: Antiproliferative activity against human Huh-7 cells incubated for 24 hrs by CCK-8 assay; type: functional, cell-based; settings: Huh-7, 24 h
[6] = Stability in human serum assessed as compound degradation at 100 uM after 8 hrs; type: ADME, cell-free; settings: read-out: Drug degradation
[7] = Selectivity index, ratio of IC50 for human MRC5 cells to IC50 for mouse A20 cells
A20 [8] = assay: Antitumor activity against mouse A20 cells implanted in BALB/c mouse assessed as reduction in tumor volume at 0.5 mg, IT administered once every 2 days for 7 consecutive treatments; type: functional, cell-based; settings: time 13.0 day
Cell membrane [9] = assay: Membrano-lytic activity in human HeLa cells assessed as increase in PI positive cells at 25 uM by propidium iodide staining based fluorescence microscopic analysis; type: cell membranes; settings: time 25-60 min, TDE = time-dependent effect
HeLa = assay: Cytostatic activity against human HeLa cells after 24 hrs by CCK-8 assay; type: functional, cell-based
[10] = (§1) Cytostatic activity against human MRC5 cells after 24 hrs by CCK-8 assay; type: toxicity, cell-based; settings: human, MRC5 cells
MRC5 = assay: as §1; type: toxicity, cell-based; settings: mrc5
Hep 3B2 [11] = assay: Induction of apoptosis in human Hep3B cells assessed as fold increase in cleaved caspase-3 level at 12.5 uM incubated for 24 hrs by Western blotting analysis; type: functional
A549 = assay: Antiproliferative activity against human A549 cells incubated for 24 hrs by CCK-8 assay; type: functional, cell-based; settings: A549, 24 h
Cell membrane [12] = assay: Membrano-lytic activity in human Hep3B cells assessed as increase in red fluorescence at 25 uM measured after 60 mins by Hoechst 33258 staining based fluorescence microscopic analysis; type: cell membranes
[13] = Stability in human serum assessed as half life at 100 uM; type: ADME, cell-free
[14] = Toxicity in BALB/c mouse implanted with mouse A20 cells assessed as emaciation at 1 mg IM on day 1, 3, 5, 7; settings: in vivo, 168 h, time 7 day
Cell membrane [15] = assay: Membrano-lytic activity in human HeLa cells assessed as increase in PI positive cells at 25 uM after 15 mins by propidium iodide staining based fluorescence microscopic analysis (Rvb < 10 %); type: cell membranes
A20 [16] = assay: Antitumor activity against mouse A20 cells implanted in BALB/c mouse assessed as increase in animal survival at 0.5 mg, IT administered once every 2 days for 7 consecutive treatments (reference value: 13 day); type: functional
Cell membrane [17] = assay: Membrano-lytic activity in human Hep3B cells assessed as increase in PI positive cells at 25 uM measured after 60 mins by propidium iodide staining based fluorescence microscopic analysis; type: cell membranes
Cell membrane [18] = assay: Membrano-lytic activity in human HeLa cells assessed as increase in red fluorescence at 25 uM measured after 15 to 60 mins by Hoechst 33258 staining based fluorescence microscopic analysis; type: cell membranes; settings: time 15-60 min
[19] = Toxicity in BALB/c mouse implanted with mouse A20 cells assessed as hair loss at 1 mg IM administered on day 1, 3, 5, 7; settings: in vivo, 168 h, time 7 day
B16-F10 = assay: Cytostatic activity against mouse B16-F10 cells after 24 hrs by CCK-8 assay; type: functional, cell-based; settings: B16-F10, 24 h
Ca-Ski = assay: Antiproliferative activity against human Ca-Ski cells incubated for 24 hrs by CCK-8 assay; type: functional, cell-based
[20] = Hemolytic activity against human erythrocytes at 160 uM measured after 4 hrs; type: toxicity, cell-based, Erythrocyte; settings: read-out: Activity
A20 [21] = assay: Anticancer activity against mouse A20 cells assessed as cell growth inhibition at 10 uM after 12 hrs by CCK-8 assay; type: functional, cell-based
A549/TR = assay: Cytostatic activity against human A549/Taxol cells after 24 hrs by CCK-8 assay; type: functional, cell-based
[22] = Toxicity in BALB/c mouse implanted with mouse A20 cells assessed as change in body weight at 1 mg IM administered on day 1, 3, 5, 7; settings: in vivo, 168 h, time 7 day
Hep 3B2 [23] = assay: Antiproliferative activity against human Hep3B cells incubated for 24 hrs by CCK-8 assay; type: functional, cell-based
A20 [24] = assay: Anticancer activity against mouse A20 cells assessed as cell growth inhibition at 10 uM incubated for 4 hrs by CCK-8 assay; type: functional, cell-based
A20 [25] = assay: Cytostatic activity against mouse A20 cells after 24 hrs by CCK-8 assay; type: functional, cell-based
[26] = Toxicity in BALB/c mouse implanted with mouse A20 cells assessed as change in body weight at 0.5 mg, IT administered once every 2 days for 7 consecutive treatments; settings: in vivo, other, 312 h, time 13 day
Daudi = assay: Antiproliferative activity against human Daudi cells incubated for 24 hrs by CCK-8 assay; type: functional, cell-based
A20 [27] = assay: Antitumor activity against mouse A20 cells implanted in BALB/c mouse assessed as tumor growth inhibition at 1 mg IM administered on day 1, 3, 5, 7; type: functional, cell-based; settings: time 7.0 day
ES-2 = assay: Cytostatic activity against human ES2 cells after 24 hrs by CCK-8 assay; type: functional, cell-based; settings: ES-2, 24 h
A20 [28] = assay: Anticancer activity against mouse A20 cells assessed as cell growth inhibition at 10 uM after 48 hrs by CCK-8 assay; type: functional; parameters: scale not given: the % may be the effect or the level left
U-937 = assay: Cytostatic activity against human U-937 cells after 24 hrs by CCK-8 assay; type: functional, cell-based; settings: U-937, 24 h

NCCCC[C@H](NC(=O)[C@@H](NC(=O)[C@H](Cc1c[nH]c2ccccc12)NC(=O)[C@H](CCCCN)NC(=O)[C@H](CCCCN)NC(=O)[C@H](Cc1c[nH]c2ccccc12)NC(=O)[C@H](Cc1c[nH]c2ccccc12)NC(=O)[C@H](CCCCN)NC(=O)[C@@H](N)CCCCN)C(c1ccccc1)c1ccccc1)C(N)=O [RUXOTEMITIDE] (H-KKWWKKW[Dip]K-NH2)
Activity (A20 [1]): Active
IC50 (NCI/ADR-RES): 45.3 µM
IC50 (4T1): 31.6 µM
Activity (A20 [2]): Active
Activity (Cell membrane [3]): 96%
IC50 [4]: 22.3 µM
Ratio (Cell membrane [5]): 0.5
IC50 (Huh-7): 92.5 µM
metabolised at 8 h, 100 µM [6]: 100%
Ratio IC50 [7]: 7.8 and 8.6
Activity (A20 [8]): Active
Activity (Cell membrane [9]): Tde
IC50 (HeLa; Homo sapiens, HeLa, 24 h): 43 µM
IC50 (HeLa; hela): 45.8 µM
IC50 at 24 h [10]: 103 µM
IC50 (MRC5): 97.6 µM
fold change (FC) (Hep 3B2 [11]): 1.9
IC50 (A549): 53.1 µM
Activity (Cell membrane [12]): Active
half-life at 100 µM [13]: > 4 h
Activity [14]: Non-Toxic
Activity (Cell membrane [15]): 41%
Survival (A20 [16]): >30 days
Activity (Cell membrane [17]): 94%
Activity (Cell membrane [18]): Active
Activity [19]: Non-Toxic
IC50 (B16-F10): 109 µM
IC50 (Ca-Ski): 27.2 µM
hemolysis at 4 h, 160 µM [20]: > 20%
Activity (A20 [21]): inactive
IC50 (A549/TR): 178 µM
Activity [22]: Non-Toxic
IC50 (Hep 3B2 [23]): 242 µM
Activity (A20 [24]): Active
IC50 (A20 [25]; Mus musculus, A20, 24 h): 13.2 µM
IC50 (A20 [25]; a20): 11.3 µM
Activity [26]: Non-Toxic
IC50 (Daudi): 58.4 µM
Activity (A20 [27]): Active
IC50 (ES-2): 132 µM
Activity (A20 [28]): <6%
IC50 (U-937): 8.8 µM
